pIC50: −log10 of the molar value.
How the values were obtained:
[1] = test system: A549 cells; assay: A549 cell-BALB/c nude mouse subcutaneous tumor transplantation experiment; assay type: in vivo, BALB/c nude mice; settings: A549 model, test compound 0.5 mg/mL at 10 mL/kg tail vein, 15 times, 6 times; for average tumor volume at the end of the experiment: 5 times a week, 5-fu 20 mg/kg twice a week; for inhibitory effect (inhibition rate of average tumor weight, FIG. 6): 5-fu 20 mg/kg
Procedure: (§1) BALB/c nude mice were subcutaneously inoculated with A549, HCT116 and HT-29 cells to establish tumor transplantation models. • Solvent Control Group: 2% DMSO+normal saline+sodium carbonate (the molar ratio of the compound to sodium carbonate is 1:2) • 5-fluorouracil control group: 5-fluorouracil injection (20 mg/kg);
(§2) Test compound group: 1 mg of a test compound was fully dissolved in […] DMSO, and then diluted with normal saline to 0.5 mg/mL. 2 mL was used each time, freshly prepared before use on the same day.
(§3) Eight mice were in each group.
(§4) The solvent control group and the test compound group were administered at a dose of 10 mL/kg via tail vein injection (the dose for each administration was calculated based on the body weight on that day), 5 times a week, for a total of 15 times. The animals were euthanized after the last administration.
(§5) The 5-fluorouracil control group was administered twice a week for a total of 6 times.
(§6) The body weight and tumor diameter were measured twice a week during the administration period. Tumors and the spleen were removed and weighed after euthanasia. The tumor volume, relative tumor volume (RTV), relative tumor growth rate (T/C %), tumor volume inhibition rate (IRTV%), and tumor weight inhibition rate (IRTW%) were calculated. Data for animals that died accidentally were only listed but excluded from statistical analysis.

[2] = test system: HT-29 cells; assay: HT-29 cell-BALB/c nude mouse subcutaneous tumor transplantation experiment; assay type: in vivo, BALB/c nude mice; settings: HT-29 model, test compound 0.5 mg/mL at 10 mL/kg tail vein, 15 times, 6 times; for average tumor volume at the end of the experiment: 5 times a week, 5-fu 20 mg/kg twice a week; for inhibitory effect (inhibition rate of average tumor weight, FIG. 6): 5-fu 20 mg/kg
Procedure: as §1, §2, §3, §4, §5, §6

[3] = Body weight of tumor-transplanted mice during administration; assay type: in vivo; settings: A549, HCT116 and HT-29 transplanted mice, during administration period
Procedure: as §1, §2, §3, §4, §5, §6

[4] = test system: HCT116 cells; assay: HCT116 cell-BALB/c nude mouse subcutaneous tumor transplantation experiment; assay type: in vivo, BALB/c nude mice; settings: HCT116 model, test compound 0.5 mg/mL at 10 mL/kg tail vein, 15 times, 6 times; for average tumor volume at the end of the experiment: 5 times a week, 5-fu 20 mg/kg twice a week; for inhibitory effect (inhibition rate of average tumor weight, FIG. 6): 5-fu 20 mg/kg
Procedure: as §1, §2, §3, §4, §5, §6

[5] = test system: human leukemia cell line K562; assay: In vitro tumor cell proliferation inhibition assay (MTT method), K562; assay type: cell-based; settings: 72 hours, mean of triplicate experiments, read-out: IC50 against K562
Procedure: (§7) Sulforhodamine B Colorimetric Method (SRB Method) and MTT Colorimetric Method (MTT Method)
(§8) Human lung cancer cell line A549, human liver cancer cell line HepG2, human colon cancer cell line HCT116, human colon cancer cell line HT-29, human leukemia cell line K562, human cervical cancer cell line hela, and human breast cancer cell line MCF-7, all provided by the Shanghai Cell Bank, Chinese Academy of Sciences.
(§9) A549, HepG2, HCT116, HT-29, K562, hela, and MCF-7 cells were cultured respectively in 1640, DMEM, 5A, 5A, 1640, DMEM, and 1640 culture media containing 10 wt % heat-inactivated FBS (fetal bovine serum), 2 mM L-glutamine, 100 U/mL penicillin and […] streptomycin, in a cell incubator at 37° C. and 5 vol % CO2. The medium was replaced every two days. After the A549, HepG2, HCT116, HT-29, hela, and MCF-7 cells were confluent, they were digested with 0.05% (w/v) trypsin-EDTA at 37° C., passaged, and maintained in the logarithmic growth phase suitable for testing. The K562 suspension cells were passaged without digestion, and maintained in the logarithmic growth phase suitable for testing. The A549, HepG2, HCT116, HT-29, K562, hela, and MCF-7 cells in the logarithmic growth phase were inoculated to 96-well plates at 5000, 5000, 5000, 5000, 6000, 5000, 5000 per well, respectively, and cultured at 37° C. for 24 h.
(§10) Then various concentrations of test samples were added. The positive control group was doxorubicin hydrochloride (final concentration was 1 μM), the solvent control group was an equal volume of DMSO, and the blank control group was an equal volume of a culture medium, with 4 replicate wells for each concentration. After the A549, HepG2, HCT116, HT-29, hela, and MCF-7 cells were treated with the test drugs for 72 hours, the cells in each well were fixed with 50% (m/v) cold trichloroacetic acid (TCA) and stained with SRB. Then […] of Tris solution was added, and the OD value at the wavelength of 540 nm was measured using a microplate reader. For K562 cells, after 72 hours of treatment with the test drugs, […] of 5 mg/mL MTT was added, and the cells were incubated at 37° C. for 4 hours. Next, […] of a triplet solution (10% SDS, 5% isobutanol, 12 mM HCl) was added, followed by further incubation for 12 to 20 hours. The OD value at the wavelength of 570 nm was measured using a microplate reader.
(§11) The tumor cell growth inhibition rate was calculated according to the following equation: […]
(§12) in the equation, • OD540 control well is the absorbance of the control group; • OD540 dosing well is the absorbance of the test group.
(§13) IC50 values of the test drugs (calculated by GraphPad Prism 5 software) were the means of the results of triplicate experiments.

[6] = test system: human breast cancer cell line MCF-7; assay: In vitro tumor cell proliferation inhibition assay (SRB method), MCF-7; assay type: cell-based; settings: MCF7, 72 hours, SRB, mean of triplicate experiments, read-out: IC50 against MCF-7
Procedure: as §7, §8, §9, §10, §11, §12, §13

[7] = test system: A549, HepG2, HCT116, HT-29, K562, hela, and MCF-7 cell lines; assay: In vitro tumor cell proliferation inhibition assay, summary over all 7 types of cells; assay type: cell-based; settings: Homo sapiens, upper bound over A549, HepG2, HCT116, HT-29, K562, hela, MCF-7
Procedure: as §7, §8, §9, §10, §11, §12, §13

[8] = test system: human colon cancer cell line HT-29; assay: In vitro tumor cell proliferation inhibition assay (SRB method), HT-29; assay type: cell-based; settings: 72 hours, SRB, mean of triplicate experiments, read-out: IC50 against HT-29
Procedure: as §7, §8, §9, §10, §11, §12, §13

[9] = test system: human lung cancer cell line A549; assay: In vitro tumor cell proliferation inhibition assay (SRB method), A549; assay type: cell-based; settings: 72 hours, SRB; for pIC50: mean of triplicate experiments, read-out: IC50 against A549; for inhibition at 10 µM: test compounds 10 μM, read-out: Inhibition rate on A549
Procedure: as §7, §8, §9, §10, §11, §12, §13

[10] = test system: human cervical cancer cell line hela; assay: In vitro tumor cell proliferation inhibition assay (SRB method), hela; assay type: cell-based; settings: 72 hours, SRB, mean of triplicate experiments, read-out: IC50 against hela
Procedure: as §7, §8, §9, §10, §11, §12, §13

[11] = test system: human liver cancer cell line HepG2; assay: In vitro tumor cell proliferation inhibition assay (SRB method), HepG2; assay type: cell-based; settings: 72 hours, SRB; for pIC50: mean of triplicate experiments, read-out: IC50 against HepG2; for inhibition at 10 µM: test compounds 10 μM, read-out: Inhibition rate on HepG2
Procedure: as §7, §8, §9, §10, §11, §12, §13

[12] = test system: human colon cancer cell line HCT116; assay: In vitro tumor cell proliferation inhibition assay (SRB method), HCT116; assay type: cell-based; settings: SRB; for pIC50: HCT-116, 72 hours, mean of triplicate experiments, read-out: IC50 against HCT116; for inhibition at 10 µM: HCT-116, test compounds 10 μM, 72 hours, read-out: Inhibition rate on HCT116
Procedure: as §7, §8, §9, §10, §11, §12, §13

Compound	average tumor volume at the end of the experiment [1]	inhibitory effect (inhibition rate of average tumor weight, FIG. 6) [1]	average tumor volume at the end of the experiment [2]	inhibitory effect (inhibition rate of average tumor weight, FIG. 6) [2]	body weight compared to the solvent control (FIG. 2) [3]	average tumor volume at the end of the experiment [4]	inhibitory effect (inhibition rate of average tumor weight, FIG. 6) [4]	pIC50 [5]	pIC50 [6]	pIC50 [7]	pIC50 [8]	pIC50 [9]	inhibition at 10 µM [9]	pIC50 [10]	pIC50 [11]	inhibition at 10 µM [11]	pIC50 [12]	inhibition at 10 µM [12]
O=c1[nH]cc(F)c(=O)[nH]1 [Compound 5-fu, 5-fluorouracil, reference compound]	322.03 mm^3	43.11%	658.02 mm^3	44.60%	significant weight loss	599.83 mm^3	44.81%											
COc1c(CNC(=O)CCl)c(C)cc(C)c1CNC(=O)CCl [Compound I-4, N-(2-methoxy-3-chloroacetamidomethyl-4,6-dimethylbenzyl) chloroacetamide]		22.05%		23.90%		574.36 mm^3	29.86%	5.03	5.24	> 4.45	4.75	5.18	69%	5.03	5.10	82.9%	5.40	69.3%
CC(=O)NCc1c(C)cc(O)c(C)c1C [Compound I-6, N-(2,3,6-trimethyl-4-hydroxybenzyl) acetamide]	492.12 mm^3	35.19%	559.37 mm^3	32.07%				5.01	5.16	> 4.45	4.45	5.23	94.9%	5.05	5.08	81.1%	5.13	96.6%
Cc1cc(O)c(CNC(=O)CCl)c(C)c1Cl [Compound I-7, N-(2,4-dimethyl-3-chloro-6-hydroxybenzyl) chloroacetamide]	559.37 mm^3	33.56%		26.52%		624.48 mm^3		4.89	5.24	> 4.45	4.54	5.09	55%	5.01	5.06	95.8%	5.13	95.1%

From patent publication US20260055051A1, “Compound with anti-tumor activity, preparation method therefor, and use thereof” (Ocean University of China, priority 2022, published 2026)
